From publication PMC10928712, “High Target Homology Does Not Guarantee Inhibition: Aminothiazoles Emerge as Inhibitors of Plasmodium falciparum” (ACS Infectious Diseases, 2024) come the findings set out here.

Read-outs that look alike come from different tables or passages of the source.

For one experiment, the system named is P. falciparum 3D7. In words: Method III growth inhibition assay (HRP2-ELISA, 3 days), 3D7. The format is cell-based, Plasmodium falciparum. On the technique in general: ELISA stands for enzyme-linked immunosorbent assay.
The test system of a further experiment is P. falciparum Dd2. In words: Method III growth inhibition assay (HRP2-ELISA, 3 days), Dd2. The experiment is classed as cell-based, Plasmodium falciparum.
Setting [1] is: 3D7, method III (HRP2 assay), drc package of R, read-out: IC50 P. falciparum 3D7 (method III).
Setting [2] is: Plasmodium falciparum, 3D7, 3D7, method III (HRP2 assay), drc package of R, read-out: IC50 P. falciparum 3D7 (method III).
Where [3] appears, read: Plasmodium falciparum, 3D7, table of compounds as SMILES with biological activity, strain not given, values match 3D7 method III, read-out: IC50.
Where [4] appears, read: Plasmodium falciparum, DD2, chloroquine-resistant Dd2, method III.
Setting [5] is: chloroquine-resistant Dd2, method III.
[6] abbreviates: table of compounds as SMILES with biological activity, strain not given, values match 3D7 method III, read-out: IC50.

A word on the IC50: it is the concentration that gives 50% inhibition. As to `OCc1cn(Cc2ccc(Cl)c(Cl)c2)c2ccc(F)cc12` [compound 32], the IC50 in the experiment on P. falciparum 3D7 (setting [1]) was 5 ± 1 µM; with P. falciparum 3D7 (setting [2]) it was < 10 µM; in the experiment with P. falciparum 3D7 (setting [3]), 5.3 µM; in the experiment with P. falciparum Dd2 (setting [4]), 8 ± 2 µM.
In the case of `Cc1nc(N)sc1-c1csc(Nc2ccccc2C(F)(F)F)n1` [compound 35], the values for the IC50 in the experiment with P. falciparum 3D7 (setting [2]) and in the experiment with P. falciparum Dd2 (setting [4]) were 43 ± 2 µM and 48 ± 12 µM, respectively.
Take `OCc1nn(Cc2ccc(Cl)c(Cl)c2)c2ccccc12` [compound 18, (1-(3,4-Dichlorobenzyl)-1H-indazol-3-yl)methanol]: the half-inhibitory concentration (IC50) turned out to be 34 µM in the experiment on P. falciparum 3D7 (setting [2]), 33.9 µM in the experiment with P. falciparum 3D7 (setting [3]) and 70 ± 21 µM in the experiment with P. falciparum Dd2 (setting [4]).
On to `COc1ccc(C(Cc2ccc(Cl)cc2)=NO)c(O)c1` [compound 9], for which the half-maximal inhibitory concentration (IC50) stood at 47 ± 15 µM in the experiment with P. falciparum 3D7 (setting [2]), 46.8 µM in the experiment on P. falciparum 3D7 (setting [3]) and 24 ± 6 µM in the experiment with P. falciparum Dd2 (setting [4]).
In the case of `OCc1cn(Cc2ccccc2)c2cccc(F)c12` [compound 25, (1-Benzyl-4-fluoro-1H-indol-3-yl)methanol], the 50% inhibitory concentration (IC50) was 12 ± 2 µM in the experiment with P. falciparum 3D7 (setting [2]), 11.9 µM in the experiment with P. falciparum 3D7 (setting [3]) and 9 µM with P. falciparum Dd2 (setting [4]).
Consider `COc1cccc2c(CO)cn(Cc3ccc(Cl)c(Cl)c3)c12` [compound 16], for which the values for the IC50 in the experiment on P. falciparum 3D7 (setting [2]), with P. falciparum 3D7 (setting [3]) and in the experiment with P. falciparum Dd2 (setting [4]) were > 56 µM, 55.5 µM and 48 ± 13 µM, respectively.
Consider `OCc1cn(Cc2ccccc2)c2ccc(Br)cc12` [compound 30, (1-Benzyl-5-bromo-1H-indol-3-yl)methanol], for which the concentration for half-maximal inhibition (IC50) in the experiment on P. falciparum 3D7 (setting [1]) was 6 ± 1 µM; in the experiment on P. falciparum 3D7 (setting [2]) it was < 10 µM; in the experiment on P. falciparum 3D7 (setting [3]) it was 6.1 µM; with P. falciparum Dd2 (setting [4]) it was 5 ± 3 µM.
Consider `Oc1ccc(-c2csc(Nc3cccc(C(F)(F)F)c3)n2)c(O)c1` [compound 37], for which the IC50 in the experiment on P. falciparum 3D7 (setting [2]) was determined as 23 ± 1 µM; with P. falciparum Dd2 (setting [4]) it was 19 ± 2 µM.
Consider `OCc1cn(Cc2ccc(Cl)c(Cl)c2)c2cc(F)ccc12` [compound 27, (1-(3,4-Dichlorobenzyl)-6-fluoro-1H-indol-3-yl)methanol], for which the IC50 in the experiment with P. falciparum 3D7 (setting [1]) was 9 ± 2 µM; with P. falciparum 3D7 (setting [2]), < 10 µM; in the experiment with P. falciparum 3D7 (setting [3]), 8.9 µM; in the experiment on P. falciparum Dd2 (setting [4]), 10 ± 5 µM.
As for `COc1ccc(C(Cc2ccc(Cl)cc2)=NO)cn1` [7E, 2-(4-Chlorophenyl)-1-(6-methoxypyridin-3-yl)ethan-1-one oxime], the IC50 is 44 ± 10 µM in the experiment with P. falciparum 3D7 (setting [1]), 43.6 µM in the experiment on P. falciparum 3D7 (setting [3]) and > 55 µM with P. falciparum Dd2 (setting [5]).
As for `COc1ccc2c(c1)c(CO)cn2Cc1ccc(Cl)c(Cl)c1` [compound 21, (1-(3,4-Dichlorobenzyl)-5-methoxy-1H-indol-3-yl)methanol], the IC50 with P. falciparum 3D7 (setting [2]) is 19 ± 1 µM; with P. falciparum 3D7 (setting [3]), 18.5 µM; in the experiment with P. falciparum Dd2 (setting [4]) it was 54 ± 6 µM.
On to “N^2-(3-Methoxyphenyl)-4′-methyl-[5,5′-bithiazole]-2,2′-diamine [compound 39]”, for which the IC50 in the experiment on P. falciparum 3D7 (setting [1]) is 18 µM; in the experiment on P. falciparum 3D7 (setting [6]) it was 17.9 µM.
Regarding `OCCc1cn(Cc2ccc(Cl)c(Cl)c2)c2ccccc12` [compound 19, 2-(1-(3,4-Dichlorobenzyl)-1H-indol-3-yl)ethan-1-ol], the IC50 is 29 ± 1 µM in the experiment with P. falciparum 3D7 (setting [2]), 28.9 µM with P. falciparum 3D7 (setting [3]) and 12 ± 3 µM with P. falciparum Dd2 (setting [4]).
As for `Cc1nc(N)sc1-c1csc(Nc2cccc(C(F)(F)F)c2)n1` [compound 45], the IC50 was found to be 3 µM with P. falciparum 3D7 (setting [2]), 2.5 µM in the experiment with P. falciparum 3D7 (setting [3]) and 5 µM with P. falciparum Dd2 (setting [4]).
For the compound `ON=C(Cc1ccc(Cl)cc1)c1ccc(O)nc1` [8Z, 2-(4-Chlorophenyl)-1-(6-hydroxypyridin-3-yl)ethan-1-one oxime], the concentration for half-maximal inhibition (IC50) in the experiment on P. falciparum 3D7 (setting [1]) and with P. falciparum Dd2 (setting [5]) was > 28 µM throughout.
On to “N^2-(3-Chloro-2-methylphenyl)-4′-methyl-[5,5′-bithiazole]-2,2′-diamine [compound 40]”, for which the half-maximal inhibitory concentration (IC50) stood at 16 ± 2 µM in the experiment with P. falciparum 3D7 (setting [1]) and 15.9 µM in the experiment with P. falciparum 3D7 (setting [6]).
As for “5-(Pyridin-4-yl)-N-(4-(trifluoromethyl)phenyl)thiazol-2-amine [compound 36]”, the IC50 with P. falciparum 3D7 (setting [1]) worked out at 34 ± 2 µM; in the experiment with P. falciparum 3D7 (setting [6]) it was 34.2 µM.
Regarding “4-(2-((4-(Trifluoromethyl)phenyl)amino)thiazol-5-yl)benzene-1,3-diol [compound 38]”, the results for the 50% inhibitory concentration (IC50) in the experiment on P. falciparum 3D7 (setting [1]) and in the experiment on P. falciparum 3D7 (setting [6]) were 22 ± 6 µM and 22.1 µM, respectively.
